The nature of series [1]: Weight change in leptin-deficient (ob/ob) mice. The format is in vivo. The note with it: for weight change: PO BID for 7 days, FIG. 3. Here is the method: To investigate Compound 1's effect on various metabolic disorders including diabetes and obesity, in vivo studies were conducted in the ob/ob obese mouse model and in the db/db diabetic model. The ob/ob mouse is deficient in the hormone leptin, a 16 kDa protein that is secreted by fat cells and plays a key role in regulating energy intake and energy expenditure, including the regulation of appetite and metabolism. […] Compound 1 was tested in these metabolic disease models along with two anti-diabetic drugs that also affect body weight, metformin hydrochloride and rosiglitazone maleate.
Male BKS.Cg-m+/+Leprdb/J (˜5 weeks of age) and B6.V-Lepob/J mice (˜8 weeks of age) were used for in vivo efficacy studies. Mice were housed 4 per cage and acclimated for 10 days prior to the start of the study. […] Mice were weighed each morning just prior to dosing. Mice were fasted overnight between study day 1 and 2 and blood glucose was measured in the morning of day 2 using a glucometer and blood from a tail nick. Food was returned to the mice ad libitum and the mice were again fasted overnight between study day 3 and 4, 5 and 6, and 7 and 8.

The conditions of series [2]: cited from earlier work.
For series [3], the target named is T1, PTP-1B (wild type, residues 1-298) (Homo sapiens, UniProt P18031).
T1 construct: PTP-1B (wild type, residues 1-298) was exchanged into DFTN buffer
T1 sequence (P18031 1-298): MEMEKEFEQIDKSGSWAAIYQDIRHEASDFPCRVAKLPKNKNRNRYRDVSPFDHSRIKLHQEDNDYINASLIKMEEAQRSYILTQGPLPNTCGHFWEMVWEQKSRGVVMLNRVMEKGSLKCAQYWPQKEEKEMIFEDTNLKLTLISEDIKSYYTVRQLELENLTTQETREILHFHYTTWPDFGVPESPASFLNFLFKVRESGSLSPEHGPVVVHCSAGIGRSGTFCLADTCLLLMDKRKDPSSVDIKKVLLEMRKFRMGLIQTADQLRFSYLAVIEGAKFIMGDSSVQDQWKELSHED
Put plainly: Mass spectrometry of PTP-1B treated with Compound 1. The format is binding. The note with it: 1 equivalent of Compound 1 for 15 minutes, FIG. 2. Here is the method:
(§1) PTP-1B (wild type, residues 1-298) was exchanged into DFTN buffer (DTT-free, 50 mM Tris, 100 mM NaCl, 1 mM EDTA, pH 7.4) using a NAP-5 column, and the concentration of protein was quantified using the absorbance at 280 nm. Purity of the PTP-1B was evidenced by a single mass peak (mass=34,672 amu in a mass spectrometer).
(§2) To 99 mL solution of 1.0 μM PTP-1B in buffer was added 1 mL of Compound 1 in DMSO […]. After 15 minutes, each Compound 1-treated PTP-1B sample was evaluated by mass spectrometry (QSTAR protein mass spectrometer with Baynesian protein mass deconvolution). Concurrently, two 10 μL aliquots were removed. One aliquot was diluted with 10 μL DFTN buffer while the other aliquot was diluted with 10 μL TN buffer (1 mM DTT, 50 mM Tris, 100 mM NaCl, 1 mM EDTA, pH 7.4). After 15 minutes, the samples were diluted with 90 μL pNPP solution (5.6 mM pNPP in DFTN) and the A405 of the solution was monitored for 5 minutes.

For series [4], the target named is T1, PTP-1B (wild type, residues 1-298). Nature of the series: PTP-1B activity assay with pNPP, with or without DTT added afterwards. It counts as biochemical. The note with it: FIG. 1. Here is the method: as §1, §2
A short description of series [5]: Weight change in db/db mice (mutation mapped to leptin receptor). The format is in vivo. The note with it: FIG. 4. The procedure: To investigate Compound 1's effect on various metabolic disorders including diabetes and obesity, in vivo studies were conducted in the ob/ob obese mouse model and in the db/db diabetic model. The ob/ob mouse is deficient in the hormone leptin, a 16 kDa protein that is secreted by fat cells and plays a key role in regulating energy intake and energy expenditure, including the regulation of appetite and metabolism. Leptin-deficient mice are severely obese and develop diabetes but revert to normal weight upon leptin administration. In the second model, the mice have a genetic mutation mapped to the leptin receptor (db/db) and at the time of the experiment were moderately overweight. Compound 1 was tested in these metabolic disease models along with two anti-diabetic drugs that also affect body weight, metformin hydrochloride and rosiglitazone maleate.
Male BKS.Cg-m+/+Leprdb/J (˜5 weeks of age) and B6.V-Lepob/J mice (˜8 weeks of age) were used for in vivo efficacy studies. Mice were housed 4 per cage and acclimated for 10 days prior to the start of the study. […] Mice were fasted overnight between study day 1 and 2 and blood glucose was measured in the morning of day 2 using a glucometer and blood from a tail nick. […]

Here are results for 3 compounds from patent US20080293777A1, “Weight Loss Treatment” (priority 2007, published 2008).

Counter-ions that a name gives are not always drawn.

For `O=c1c2ccccc2[se]n1-c1ccccc1` [Compound 1, 2-phenyl-1,2-benzisoselenazol-3(2H)-one], the “difference in weight loss between doses” value in series [1] (20 mg/kg vs 100 mg/kg Compound 1 dosed orally BID) is reported as “No significant difference in weight loss”. Moreover, the weight change result in series [1] is given as “promoted weight loss”. Besides, in series [2] (data from clinical trials), the cell permeability result is recorded as “cell-permeable”. In series [2] (human, in vivo), the “bioavailability of the selenium moiety” value is recorded as “not bioavailable”. Moreover, in series [2] (humans, clinical trials), the oral bioavailability result is reported as “orally bioavailable” and the tolerability result is “well tolerated”. Also, the toxicity result in series [2] (up to 500 mg/day oral dose in humans) was “no toxicity was observed”. For the same compound, the “covalent modification of PTP-1B (mass spectrum)” value in series [3] is reported as “covalently modifies”. Moreover, the “relative activity of PTP-1B” value in series [4] (0-2 equivalents of Compound 1, 15 minutes) is “inhibits the activity”. Also, the “reversibility of covalent inhibition of PTP-1B” value in series [4] (upon addition of a reducing agent such as DTT) is recorded as “reversible”.

`CN(C)C(=N)N=C(N)N` [metformin, metformin hydrochloride, reference compound]: the weight change entry in series [1] is reported as “promoted weight loss”.

In the case of `CN(CCOc1ccc(CC2SC(=O)NC2=O)cc1)c1ccccn1.O=C(O)/C=C\C(=O)O` (stereo not shown) [rosiglitazone, rosiglitazone maleate, reference compound], in series [5], the “statistical significance of weight gains” value was “except for the rosiglitazone-treated mice, the weight gains were not statistically significant”. Moreover, in series [1], the weight change entry is given as “gained weight”.
